One assay concerns mice. The experiment in a line: Bile acids physiology after one week daily oral treatment. It counts as in vivo. To be noted: oral gavage once daily for a week (0.03 mg/kg). On the procedure: FIG. 13A-B: Single-dose effect of Compound IIa on bile acids secretion after one week treatment. Mice were treated daily with Compound IIa (0.03 mg/kg) by oral gavage. On the day of sacrifice, the mice were fasted for 3 hours followed by an oral gavage (same concentration). 4 hours later the bile content was analyzed. FIG. 13A: data are expressed as the concentration of bile acids. FIG. 13B: data are expressed as the pool of bile acids per mouse weight (*p<0.05). Group of animals n=10.
In the previous experiments, illustrative compounds of the invention were administrated once and the impact on bile physiology was measured after 6 hours. Compound IIa was administrated by oral gavage once daily for a week to allow observation of the consequences on bile physiology of a longer treatment. On the day of sacrifice, the conditions were similar to the dose response experiments. The net impact of Compound IIa on the bile secretion was observed.

Assay [1] deals with P2Y13 knock-down Hepa 1-6 cells. As to the kind of experiment: HDL uptake on P2Y13 knock-down Hepa 1-6 cells. To be noted: in presence of Compound IIa (1 μM); doxycycline 72 hours; p<0.005. It counts as cell-based, mouse. The method, then: FIG. 15: HDL uptake on P2Y13 knock-down Hepa 1-6 cells. Hepa 1-6 cells transduced with lentiviral particles coding the P2Y13 shRNA were induced by the addition of doxycycline for 72 hours. Cells were incubated for 10 min at 37° C. with 75 μg/ml ^3H cholesterol ether HDL and Compound IIa (1 μM). Data are expressed as the percentage of internalized radioactivity with respect to the control value (set as […]).*p<0.05, **p<0.005.
In order to relate the specific P2Y13 HDL uptake to the illustrative compounds of the invention, a knock-down P2Y13 in a mouse liver cell line (Hepa 1-6) was investigated. Lentiviral particles coding for the mouse P2Y13 shRNA and inducible by the addition of doxycycline onto the cells (pTRIPZ vector from Open Biosystem) were used. In presence of doxycycline, a decrease of the P2Y13 mRNA (FIG. 11) was observed. The uptake of HDL on this cell line was measured in the presence and the absence of Compound IIa and doxycycline (FIG. 12). A significant decrease of HDL uptake (8.5%) was observed when the cells were treated with doxycycline (group vehicle—p<0.05).
Transduced Hepa 1-6 cells were plated at 300,000 cells/well in 6×-well plates. […]
The lentiviral production in HEK 293T and authorization for lentiviral production was obtained by Vectalys. […] 24 hours after transduction, the number of cells was counted. […]

In the case of `CN(C)c1ncc(CN2CCC(c3cc(O)nc(N4CCOCC4)n3)CC2)cn1` [Compound IIa, 6-[1-(2-Dimethylaminopyrimidin-5-ylmethyl)-piperidin-4-yl]-2-morpholin-4-yl-pyrimidin-4-ol], in the assay on mice, the “volume of the individual bile compared to vehicle treatment” value was “significant increase”. The “decrease of HDL uptake when cells were treated with doxycycline (P2Y13 knock-down)” value in assay [1] was found to be 17.5%.

The values above are taken from patent publication US10220040B2, “Compounds, compositions and methods useful for cholesterol mobilization” (Cerenis Therapeutics Holding SA, priority 2010, dated 2019).
